# Legend:
# Test in all cases: KINOMEscan competition binding
# Conditions in all cases: compound 0.5 µM
# ACVR1B (human) = ACVR1B (human) (UniProt P36896)
# ADCK3 (human) = ADCK3 (human) (UniProt Q8NI60)
# ADCK4 (human) = ADCK4 (human) (UniProt Q96D53)
# BTK (human) = BTK (human) (UniProt Q06187)
# CAMK2G (human) = CAMK2G (human) (UniProt Q13555)
# CDK11B (human) = CDK11B (human) (UniProt P21127)
# CDK7 (human) = CDK7 (human) (UniProt P50613)
# CDK9 (human) = CDK9 (human) (UniProt P50750)
# CDKL1 (human) = CDKL1 (human) (UniProt Q00532)
# CSNK1E (human) = CSNK1E (human) (UniProt P49674)
# EPHB1 (human) = EPHB1 (human) (UniProt P54762)
# EPHB4 (human) = EPHB4 (human) (UniProt P54760)
# [1] = system: FGFR3 (human), P22607 [G697C]
# GAK (human) = GAK (human) (UniProt O14976)
# HIPK3 (human) = HIPK3 (human) (UniProt Q9H422)
# IGF1R (human) = IGF1R (human) (UniProt P08069)
# [2] = system: KIT (human), P10721 [V559D/T670I]
# [3] = system: KIT (human), P10721 [V559D/V654A]
# LATS1 (human) = LATS1 (human) (UniProt O95835)
# [4] = system: LRRK2 (human), Q5S007 [G2019S]
# MAP3K12 (human) = MAP3K12 (human) (UniProt Q12852)
# MAST1 (human) = MAST1 (human) (UniProt Q9Y2H9)
# [5] = system: MET (human), P08581 [Y1235D]
# MYLK (human) = MYLK (human) (UniProt Q15746)
# NEK2 (human) = NEK2 (human) (UniProt P51955)
# NLK (human) = NLK (human) (UniProt Q9UBE8)
# NTRK1 (human) = NTRK1 (human) (UniProt P04629)
# PAK6 (human) = PAK6 (human) (UniProt Q9NQU5)
# PDGFRA (human) = PDGFRA (human) (UniProt P16234)
# PDGFRB (human) = PDGFRB (human) (UniProt P09619)
# PDPK1 (human) = PDPK1 (human) (UniProt O15530)
# [6] = system: PIK3CA (human), P42336 [E545K]
# PIP4K2C (human) = PIP4K2C (human) (UniProt Q8TBX8)
# PKN2 (human) = PKN2 (human) (UniProt Q16513)
# PLK2 (human) = PLK2 (human) (UniProt Q9NYY3)
# PLK3 (human) = PLK3 (human) (UniProt Q9H4B4)
# PLK4 (human) = PLK4 (human) (UniProt O00444)
# SBK1 (human) = SBK1 (human) (UniProt Q52WX2)
# STK33 (human) = STK33 (human) (UniProt Q9BYT3)
# TBK1 (human) = TBK1 (human) (UniProt Q9UHD2)
# TNIK (human) = TNIK (human) (UniProt Q9UKE5)
# TXK (human) = TXK (human) (UniProt P42681)
# FGFR3 (human), P22607 [G697C], sequence (P22607 whole entry G697C, looked up): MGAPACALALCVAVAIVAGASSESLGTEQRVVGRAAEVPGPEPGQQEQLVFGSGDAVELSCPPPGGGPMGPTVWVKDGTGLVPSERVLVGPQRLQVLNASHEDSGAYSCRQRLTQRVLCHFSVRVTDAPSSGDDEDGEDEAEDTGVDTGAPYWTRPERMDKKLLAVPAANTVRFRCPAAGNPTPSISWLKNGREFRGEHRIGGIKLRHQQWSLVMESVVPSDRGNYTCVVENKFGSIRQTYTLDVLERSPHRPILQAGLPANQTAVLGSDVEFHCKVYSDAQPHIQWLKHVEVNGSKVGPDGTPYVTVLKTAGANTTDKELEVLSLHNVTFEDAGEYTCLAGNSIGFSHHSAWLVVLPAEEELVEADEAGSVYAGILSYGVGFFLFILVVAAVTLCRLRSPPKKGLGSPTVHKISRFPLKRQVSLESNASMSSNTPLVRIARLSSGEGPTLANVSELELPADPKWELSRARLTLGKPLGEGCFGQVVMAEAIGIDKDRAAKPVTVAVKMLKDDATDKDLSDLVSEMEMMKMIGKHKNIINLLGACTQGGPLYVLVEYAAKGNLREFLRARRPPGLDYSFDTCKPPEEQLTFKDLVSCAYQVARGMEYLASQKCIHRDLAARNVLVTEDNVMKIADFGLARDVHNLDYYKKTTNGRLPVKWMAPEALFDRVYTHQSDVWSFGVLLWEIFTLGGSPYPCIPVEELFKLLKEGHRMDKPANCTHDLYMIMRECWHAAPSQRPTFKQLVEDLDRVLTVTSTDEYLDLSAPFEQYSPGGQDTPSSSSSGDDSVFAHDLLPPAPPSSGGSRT
# PIP4K2C (human), sequence (Q8TBX8 whole entry, looked up): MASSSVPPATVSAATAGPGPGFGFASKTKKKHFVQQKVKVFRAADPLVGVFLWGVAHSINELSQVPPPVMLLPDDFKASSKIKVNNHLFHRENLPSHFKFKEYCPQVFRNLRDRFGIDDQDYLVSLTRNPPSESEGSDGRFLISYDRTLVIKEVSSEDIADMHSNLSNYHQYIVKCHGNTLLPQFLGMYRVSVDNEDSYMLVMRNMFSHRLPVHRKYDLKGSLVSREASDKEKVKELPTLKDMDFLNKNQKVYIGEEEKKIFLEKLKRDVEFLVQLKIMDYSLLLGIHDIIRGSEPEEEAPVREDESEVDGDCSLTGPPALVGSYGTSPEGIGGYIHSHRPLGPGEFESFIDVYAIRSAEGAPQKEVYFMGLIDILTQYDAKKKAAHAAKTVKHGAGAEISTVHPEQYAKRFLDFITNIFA
# CSNK1E (human), sequence (P49674 whole entry, looked up): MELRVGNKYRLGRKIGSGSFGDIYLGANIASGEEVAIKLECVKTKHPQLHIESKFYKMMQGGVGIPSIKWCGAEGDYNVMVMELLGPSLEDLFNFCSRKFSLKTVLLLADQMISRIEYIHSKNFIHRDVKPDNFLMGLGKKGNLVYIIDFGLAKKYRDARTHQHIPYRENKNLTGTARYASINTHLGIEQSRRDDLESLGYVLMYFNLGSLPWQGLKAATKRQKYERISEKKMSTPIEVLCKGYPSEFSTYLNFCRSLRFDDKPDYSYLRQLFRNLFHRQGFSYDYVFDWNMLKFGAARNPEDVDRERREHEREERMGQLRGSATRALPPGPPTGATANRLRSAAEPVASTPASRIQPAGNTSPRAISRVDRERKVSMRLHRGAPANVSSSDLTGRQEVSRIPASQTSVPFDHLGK
# ADCK4 (human), sequence (Q96D53 whole entry, looked up): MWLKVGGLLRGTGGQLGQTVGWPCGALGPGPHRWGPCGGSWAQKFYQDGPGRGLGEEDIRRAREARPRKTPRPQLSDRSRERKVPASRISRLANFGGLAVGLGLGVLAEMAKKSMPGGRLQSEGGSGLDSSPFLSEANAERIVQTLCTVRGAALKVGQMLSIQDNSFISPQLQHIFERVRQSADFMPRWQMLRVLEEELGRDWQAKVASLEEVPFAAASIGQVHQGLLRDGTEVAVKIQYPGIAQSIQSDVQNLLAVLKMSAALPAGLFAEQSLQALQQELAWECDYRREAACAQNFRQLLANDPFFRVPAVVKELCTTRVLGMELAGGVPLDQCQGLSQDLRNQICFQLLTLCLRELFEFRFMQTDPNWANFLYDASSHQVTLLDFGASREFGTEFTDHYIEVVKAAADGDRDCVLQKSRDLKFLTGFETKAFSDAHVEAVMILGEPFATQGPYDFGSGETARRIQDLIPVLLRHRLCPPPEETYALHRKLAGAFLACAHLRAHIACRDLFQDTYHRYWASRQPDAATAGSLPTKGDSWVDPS
# PDGFRA (human), sequence (P16234 whole entry, looked up): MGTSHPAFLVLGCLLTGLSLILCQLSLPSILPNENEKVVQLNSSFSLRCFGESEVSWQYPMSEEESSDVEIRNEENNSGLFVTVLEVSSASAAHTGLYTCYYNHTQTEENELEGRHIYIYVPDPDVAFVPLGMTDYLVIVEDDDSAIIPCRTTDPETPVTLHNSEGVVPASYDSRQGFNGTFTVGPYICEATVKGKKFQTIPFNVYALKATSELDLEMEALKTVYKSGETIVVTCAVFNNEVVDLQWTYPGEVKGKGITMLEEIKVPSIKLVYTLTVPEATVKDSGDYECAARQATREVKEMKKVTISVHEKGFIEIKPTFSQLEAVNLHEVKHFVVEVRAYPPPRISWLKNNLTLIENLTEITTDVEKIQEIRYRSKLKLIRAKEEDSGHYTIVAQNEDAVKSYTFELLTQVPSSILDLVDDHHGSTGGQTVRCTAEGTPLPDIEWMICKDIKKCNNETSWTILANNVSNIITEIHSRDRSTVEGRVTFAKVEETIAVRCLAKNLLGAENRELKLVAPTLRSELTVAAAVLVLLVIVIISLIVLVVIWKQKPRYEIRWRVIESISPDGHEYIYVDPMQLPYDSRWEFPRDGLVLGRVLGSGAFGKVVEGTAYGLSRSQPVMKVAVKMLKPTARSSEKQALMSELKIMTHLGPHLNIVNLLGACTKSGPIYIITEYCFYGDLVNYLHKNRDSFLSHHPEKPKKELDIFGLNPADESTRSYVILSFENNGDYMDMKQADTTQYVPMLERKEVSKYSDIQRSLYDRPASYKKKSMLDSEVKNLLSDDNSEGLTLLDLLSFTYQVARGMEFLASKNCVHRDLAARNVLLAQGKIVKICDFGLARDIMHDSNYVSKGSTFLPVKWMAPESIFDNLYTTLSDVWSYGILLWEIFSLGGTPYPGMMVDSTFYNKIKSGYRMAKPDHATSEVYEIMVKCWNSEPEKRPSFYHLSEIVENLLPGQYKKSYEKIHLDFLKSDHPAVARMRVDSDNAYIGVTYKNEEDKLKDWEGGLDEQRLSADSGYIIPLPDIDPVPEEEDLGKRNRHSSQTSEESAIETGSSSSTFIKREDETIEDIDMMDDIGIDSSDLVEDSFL
# PAK6 (human), sequence (Q9NQU5 whole entry, looked up): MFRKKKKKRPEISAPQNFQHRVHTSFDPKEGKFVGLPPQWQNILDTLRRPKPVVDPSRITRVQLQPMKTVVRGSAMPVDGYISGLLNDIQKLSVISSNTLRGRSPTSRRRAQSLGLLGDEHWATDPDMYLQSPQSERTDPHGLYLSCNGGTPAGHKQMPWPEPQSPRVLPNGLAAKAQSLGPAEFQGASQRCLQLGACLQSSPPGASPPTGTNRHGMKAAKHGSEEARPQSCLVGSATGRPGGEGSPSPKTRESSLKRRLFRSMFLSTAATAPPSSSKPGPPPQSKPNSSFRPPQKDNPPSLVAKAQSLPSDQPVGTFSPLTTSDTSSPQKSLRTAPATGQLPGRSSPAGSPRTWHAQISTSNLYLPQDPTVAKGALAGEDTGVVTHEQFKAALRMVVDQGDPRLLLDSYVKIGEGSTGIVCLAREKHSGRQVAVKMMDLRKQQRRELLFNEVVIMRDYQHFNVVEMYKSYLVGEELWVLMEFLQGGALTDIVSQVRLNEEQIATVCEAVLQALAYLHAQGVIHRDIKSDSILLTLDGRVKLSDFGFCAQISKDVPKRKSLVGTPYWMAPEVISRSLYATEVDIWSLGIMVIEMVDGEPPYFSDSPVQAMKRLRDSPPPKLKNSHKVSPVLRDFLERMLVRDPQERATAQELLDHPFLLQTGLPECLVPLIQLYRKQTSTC
# TBK1 (human), sequence (Q9UHD2 whole entry, looked up): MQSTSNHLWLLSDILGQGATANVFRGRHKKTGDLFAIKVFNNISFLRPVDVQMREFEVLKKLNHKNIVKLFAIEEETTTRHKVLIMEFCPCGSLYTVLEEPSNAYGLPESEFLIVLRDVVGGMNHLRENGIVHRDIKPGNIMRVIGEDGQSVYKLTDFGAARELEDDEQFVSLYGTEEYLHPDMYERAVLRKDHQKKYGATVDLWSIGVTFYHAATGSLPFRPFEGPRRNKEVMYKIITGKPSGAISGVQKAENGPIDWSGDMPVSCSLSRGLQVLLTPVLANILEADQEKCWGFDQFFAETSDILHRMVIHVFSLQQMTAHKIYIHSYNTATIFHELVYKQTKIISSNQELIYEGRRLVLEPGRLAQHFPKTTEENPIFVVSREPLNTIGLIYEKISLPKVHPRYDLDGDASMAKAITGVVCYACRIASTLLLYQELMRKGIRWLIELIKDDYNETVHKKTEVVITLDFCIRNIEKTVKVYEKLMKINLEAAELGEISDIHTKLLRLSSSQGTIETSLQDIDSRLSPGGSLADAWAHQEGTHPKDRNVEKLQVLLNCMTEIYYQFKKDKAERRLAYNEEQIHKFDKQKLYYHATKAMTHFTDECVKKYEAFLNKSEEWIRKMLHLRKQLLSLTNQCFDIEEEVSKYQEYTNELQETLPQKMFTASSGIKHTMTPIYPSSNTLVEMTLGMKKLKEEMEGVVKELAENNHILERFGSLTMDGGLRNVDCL
# CDKL1 (human), sequence (Q00532 whole entry, looked up): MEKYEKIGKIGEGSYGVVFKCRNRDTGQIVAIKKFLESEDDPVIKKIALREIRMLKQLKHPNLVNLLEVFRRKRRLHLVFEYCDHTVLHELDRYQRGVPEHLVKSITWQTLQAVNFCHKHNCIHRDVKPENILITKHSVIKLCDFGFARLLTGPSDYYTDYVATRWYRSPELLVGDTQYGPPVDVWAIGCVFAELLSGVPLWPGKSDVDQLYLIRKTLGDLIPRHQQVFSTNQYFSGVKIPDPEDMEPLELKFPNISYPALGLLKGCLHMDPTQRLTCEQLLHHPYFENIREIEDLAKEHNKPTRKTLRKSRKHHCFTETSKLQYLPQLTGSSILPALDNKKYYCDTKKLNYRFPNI
smiles,measurement,setting,value
Cn1c2ccccc2c2c3c(c4c5ccccc5n(CCC#N)c4c21)CNC3=O,"kinase still bound, per cent of control",ACVR1B (human),85%
same,"kinase still bound, per cent of control",ADCK3 (human),100%
same,"kinase still bound, per cent of control",ADCK4 (human),93%
same,"kinase still bound, per cent of control",BTK (human),83%
same,"kinase still bound, per cent of control",CAMK2G (human),41%
same,"kinase still bound, per cent of control",CDK11B (human),100%
same,"kinase still bound, per cent of control",CDK7 (human),84%
same,"kinase still bound, per cent of control",CDK9 (human),100%
same,"kinase still bound, per cent of control",CDKL1 (human),81%
same,"kinase still bound, per cent of control",CSNK1E (human),100%
same,"kinase still bound, per cent of control",EPHB1 (human),97%
same,"kinase still bound, per cent of control",EPHB4 (human),100%
same,"kinase still bound, per cent of control",[1],100%
same,"kinase still bound, per cent of control",GAK (human),2%
same,"kinase still bound, per cent of control",HIPK3 (human),12%
same,"kinase still bound, per cent of control",IGF1R (human),85%
same,"kinase still bound, per cent of control",[2],57%
same,"kinase still bound, per cent of control",[3],100%
same,"kinase still bound, per cent of control",LATS1 (human),31%
same,"kinase still bound, per cent of control",[4],9.4%
same,"kinase still bound, per cent of control",MAP3K12 (human),89%
same,"kinase still bound, per cent of control",MAST1 (human),100%
same,"kinase still bound, per cent of control",[5],80%
same,"kinase still bound, per cent of control",MYLK (human),56%
same,"kinase still bound, per cent of control",NEK2 (human),100%
same,"kinase still bound, per cent of control",NLK (human),100%
same,"kinase still bound, per cent of control",NTRK1 (human),0.1%
same,"kinase still bound, per cent of control",PAK6 (human),1.4%
same,"kinase still bound, per cent of control",PDGFRA (human),100%
same,"kinase still bound, per cent of control",PDGFRB (human),42%
same,"kinase still bound, per cent of control",PDPK1 (human),41%
same,"kinase still bound, per cent of control",[6],100%
same,"kinase still bound, per cent of control",PIP4K2C (human),75%
same,"kinase still bound, per cent of control",PKN2 (human),12%
same,"kinase still bound, per cent of control",PLK2 (human),100%
same,"kinase still bound, per cent of control",PLK3 (human),100%
same,"kinase still bound, per cent of control",PLK4 (human),6.5%
same,"kinase still bound, per cent of control",SBK1 (human),82%
same,"kinase still bound, per cent of control",STK33 (human),1.5%
same,"kinase still bound, per cent of control",TBK1 (human),92%
same,"kinase still bound, per cent of control",TNIK (human),0.3%
same,"kinase still bound, per cent of control",TXK (human),11%

# Source: the kinase profiling compilation of Christmann-Franck et al. (2016)
